Test results: patent publication US7166597B2, “Fused pyrazole derivatives being protein kinase inhibitors” (Glaxo Group Limited, priority 2000, dated 2007)

Columns and labels:
[1] = test system: serum TNFα elevation in mice treated with lipopolysaccharide (LPS); assay: Murine LPS-Stimulated Serum TNF Inhibition; assay type: in vivo; conditions: Mus musculus, 1.5 h, Table 7, LPS challenge, dose 30 mpk, read-out: % inh. (dose): % inhibition of murine TNF production in mice following an LPS challenge
Description: Murine LPS—Stimulated Serum TNF Inhibition Protocol
The potency of compounds of the invention as inhibitors of serum TNFα elevation in mice treated with lipopolysaccharide (LPS) was determined as follows; a) for subcutaneous (s.c.) administration, test compound was dissolved in DMSO and added to a mixture of 0.9% sodium chloride solution and 30% Trappsol HPB-20 (Cyclodextrin Technology Development Inc., Gainesville, Fla. USA) for a final DMSO concentration of 1%. The dosing solution was sonicated briefly and 0.2 mL was injected subcutaneously 10 min prior to LPS injection; b) for per oral (p.o.) administration, test compounds were formulated in 0.2 mL of PBS and 0.1% Tween 80 and given orally via gavage 10 min prior to LPS administration.
C3/hen female mice were injected intraperitoneally with 200 μg/kg LPS (Escherichia coil, Serotype 0111:B4, Sigma Chemical Co, St. Louis, Mo.) in PBS and sacrificed 90 min later by CO2 asphyxiation. Blood was immediately taken from the caudal vena cava and plasma prepared and frozen at −80° C. Plasma concentrations of TNF were measured by ELISA (Genzyme Co., Cambridge Mass.).

[2] = test system: TNF release from human peripheral blood mononuclear cells (PBMNC); assay: Cell Based Assay for Cytokines Production in PBMNC (TNF release after LPS); conditions: PBMC, Table 7, LPS stimulation, read-out: TNF/PBMNC (inhibition of TNF release from human PBMNC following stimulation with LPS, IC50)
Description: Cell Based Assay for Cytokines Production in PBMNC
Human peripheral blood mononuclear cells were isolated from heparinized blood by LSM (Organon Teknika) from volunteer donors. Purified human peripheral blood mononuclear cells were then suspended at a concentration of 2×10^6 cells/ml in RPMI 1640 medium supplemented with 10% heat-inactivated FBS and 1% antibiotics. Aliquots of 100 μl (2×10^5 cells) were added to 96-well microliter plates. Test compounds at […] dose ranges (final-DMSO concentration in culture medium was 0.1%) were then added to the cells for 10–15 minutes before the addition of lipopolysaccharide (1 ng/ml). After incubation at 37° C. in a 5% CO2 incubator for 18–20 h, cell free supernatants were collected by centrifugation at 800 g. The supernatant was then assayed for the amount of TNFα and IL-1β by using Quantikine immunoassay kits developed by R&D Systems (Minneapolis, Minn.).

[3] = Cell Based Efficacy (MTT Assay), cytotoxicity toward HFF; conditions: human, HFF cells (human foreskin fibroblasts), Table 7, HFF cell line
Description: Cell Based Efficacy (MTT Assay)
The potency of compounds of the invention are tested for their ability to inhibit cell proliferation and cell viability. The metabolic conversion of 3-(4,5-dimethylthiazol-2-yl)-2,5-diphenyltetrazolium bromide (MTT, Sigma #M2128) to a reduced form was a commonly used measure of cellular viability. Following was the procedure:
Cells are maintained in 75 cm^2 tissue culture flasks until ready for use. The cells are grown and plated for the assay in Dulbecco's modified Eagle's media containing 10% fetal bovine serum. For example, the following cell lines can be used: a) human foreskin fibroblasts (HFF), b) HT29 (human colon carcinoma cell line), c) MDA-MB468 (human breast carcinoma cell line), d) RKO (human colon adenocarcinoma cell line), e) SW620 (human colon carcinoma cell line), f) A549 (human lung carcinoma cell line), and g) MIA PACA (human pancreatic carcinoma cell line). Cells are maintained at 37° C. in 10% CO2, 90% humidified air. Cells are plated in 96-well tissue culture plates at the densities listed below (Table 6). 100 μL of cell suspension was added to each well of the 96-well plate except the top row of the plate which contains no cells and serves as a reference for the spectrophotometer.
Cells are incubated overnight in Dulbecco's modified Eagle's media containing 10% fetal bovine serum at 37° C. in 10% CO2, 90% humidified air prior to dosing. Cells are dosed in 10 sequential 3-fold dilutions starting at 30 μM depending upon the solubility of the compound. Compounds with solubilities of less than 30 μM are dosed at the highest soluble concentration. Stock solutions of compounds are made in 100% dimethyl sulfoxide (DMSO). Stock solutions are diluted in Dulbecco's modified Eagle's media containing 100 ug/mL gentamicin and 0.3 to 0.6% DMSO at the twice the highest concentration to be placed on the cells. If compounds have been dissolved in DMSO the final concentration of DMSO on the cells was kept below 0.3%. 3-fold serial dilutions are performed on each compound to prepare 10 concentrations of the compound for dosing. 100 μL of diluted compound was added to the 100 μL of media currently on the dish. For each concentration of compound, 2–4 replicate wells are prepared.
Cells are returned to incubator and allowed to proliferate in the presence of compound for 72 h before addition of MTT. MTT was prepared in phosphate buffered saline (Irvine Scientific #9240) at a concentration of 2 mg/mL. 50 μL per well of MTT solution was added to the 200 μL of media to yield a final concentration of 0.4 mg/mL and plates are returned to the incubator for 4 h. After 4 h incubation the media, compound and MTT mixture was aspirated from the plates and 100 μL of 100% DMSO was added to each well in addition to 25 uL of Sorenson's Buffer (0.1M glycine, 0.1M NaCl, pH 10.5). Quantitation of metabolic reduction of MTT in each plate was performed by reading optical density at 570 nm wavelength on a Molecular Devices UV max microplate reader. Growth inhibition curves and 50% inhibitory concentrations are determined using Microsoft Excel.

p38 kinase = molecular target: T1, p38 kinase (Homo sapiens, UniProt Q16539); assay: p38 Kinase Assay; assay type: biochemical; conditions: Table 7, compounds wherein Z is CH; read-out: P38 kinase (inhibition of p38 kinase, IC50)
T1 construct: GST (N); made in house; host or cells: E. coli
T1 sequence (Q16539 whole entry): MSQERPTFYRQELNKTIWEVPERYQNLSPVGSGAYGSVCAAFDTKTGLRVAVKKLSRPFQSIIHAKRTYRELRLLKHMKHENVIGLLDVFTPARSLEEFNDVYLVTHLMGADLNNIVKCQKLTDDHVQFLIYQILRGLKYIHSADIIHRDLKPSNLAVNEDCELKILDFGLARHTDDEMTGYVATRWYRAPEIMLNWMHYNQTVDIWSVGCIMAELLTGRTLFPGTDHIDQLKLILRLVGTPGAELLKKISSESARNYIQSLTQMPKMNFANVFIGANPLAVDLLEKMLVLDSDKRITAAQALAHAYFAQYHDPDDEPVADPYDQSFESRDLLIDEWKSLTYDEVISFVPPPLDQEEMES

Structure (SMILES): OCCCNc1cc(-c2c(-c3ccc(F)cc3)nn3ccccc23)ccn1 [Example 30, 3-(4-[2-(4-Fluorophenyl)pyrazolo[1,5-a]pyridin-3-yl]-2-pyridinylamino)-1-propanol]
- inhibition in vivo at 30 mg/kg [1]: 45%
- IC50 [2]: < 500 nM
- IC50 at 72 h [3]: > 50000 nM
- IC50 (p38 kinase): < 500 nM

Structure (SMILES): Fc1ccc(-c2nn3ccccc3c2-c2ccncc2)cc1 [Example 1, 2-(4-Fluorophenyl)-3-(4-pyridyl)-pyrazolo[1,5-a]pyridine]
- inhibition in vivo at 30 mg/kg [1]: 65%
- IC50 [2]: < 500 nM
- IC50 at 72 h [3]: > 50000 nM
- IC50 (p38 kinase): < 500 nM
